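Five compound concentrations were applied to cells in 96-well plates for 48 hours; endpoints were derived by simple linear interpolation of the resulting dose-response curve. Abbreviation: GI50, concentration required for 50% inhibition of growth. TGI: concentration producing complete growth inhibition.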 Where a SMILES comes first, the peptide text is derived from it. [ ]: non-standard residue; d: D form. The star is where a group is joined. ξ: configuration not given here. X6 = FC(F)(F)c1cc(NC(=S)*)cc(C(F)(F)F)c1; ξF = NC(Cc1ccccc1)C(=O)O
Columns and labels:
Test in all cases: NCI tumour cell line growth inhibition, 48 h
A549 NSCLC = system: A549 NSCLC
OVCAR-8 ovarian = system: OVCAR-8 ovarian
COLO 205 colon = system: COLO 205 colon
UACC-257 melanoma = system: UACC-257 melanoma
SF-268 CNS = system: SF-268 CNS
HOP-92 NSCLC = system: HOP-92 NSCLC
OVCAR-3 ovarian = system: OVCAR-3 ovarian
UO-31 renal = system: UO-31 renal
UACC-62 melanoma = system: UACC-62 melanoma
SW-620 colon = system: SW-620 colon

Row | Structure (SMILES) | TGI (A549 NSCLC) | TGI (OVCAR-8 ovarian) | TGI (COLO 205 colon) | TGI (UACC-257 melanoma) | TGI (SF-268 CNS) | TGI (HOP-92 NSCLC) | TGI (OVCAR-3 ovarian) | TGI (UO-31 renal) | TGI (UACC-62 melanoma) | TGI (SW-620 colon) | GI50 (A549 NSCLC) | GI50 (OVCAR-8 ovarian) | GI50 (COLO 205 colon) | GI50 (UACC-257 melanoma) | GI50 (SF-268 CNS) | GI50 (HOP-92 NSCLC) | GI50 (OVCAR-3 ovarian) | GI50 (UO-31 renal) | GI50 (UACC-62 melanoma) | GI50 (SW-620 colon)
1 | O=CN/C=C/c1cc(O)ccc1O | > 85.4 µM | 43 µM | 26.5 µM | 27.8 µM | 37.5 µM | 25.6 µM | 22.5 µM | 46.3 µM | 27.3 µM | 21.5 µM | – | – | – | – | – | – | – | – | – | –
2 | COC1(OC)CCC2C1C1CCC(OC)(OC)C21 (stereo not given) | > 50 µM | > 50 µM | > 50 µM | > 50 µM | > 50 µM | > 50 µM | > 50 µM | > 50 µM | > 50 µM | > 50 µM | – | – | – | – | – | – | – | – | – | –
3 | O=C1CC(c2ccc3c(c2)OCO3)Nc2ccccc21 (stereo not given) | 76.6 µM | 63.3 µM | 37.2 µM | > 60.4 µM | 35.6 µM | 32.3 µM | 21.3 µM | 19.4 µM | 30.3 µM | 23.1 µM | 17.1 µM | 14.4 µM | 16.5 µM | 26.4 µM | 10.4 µM | 4.96 µM | 5.01 µM | 5.9 µM | 11.7 µM | 6.61 µM
4 | CC/C=C\CCC/C=C1/C(=O)C=C[C@@H]1C/C=C\CCCC(=O)OC | 28.4 µM | 12.8 µM | 12.5 µM | 20.5 µM | 22.1 µM | 23.6 µM | 11.8 µM | 5.15 µM | 6.49 µM | 18.7 µM | 11.1 µM | 3.71 µM | 4.1 µM | 7.55 µM | 4.79 µM | 9.77 µM | 3.39 µM | 2.04 µM | 2.57 µM | 4.16 µM
5 | Cc1cc(I)cc(CN(C)CCCCN2CCCCC2)c1O | 96.8 µM | > 100 µM | 24.9 µM | 15.1 µM | 27.3 µM | 38.2 µM | 53.4 µM | 36.6 µM | 6.98 µM | 27.5 µM | 27.4 µM | 36.5 µM | 9.87 µM | 4.2 µM | 12.5 µM | 6.2 µM | 20 µM | 14.2 µM | 2.62 µM | 13.3 µM
6 | O=C1C(Cl)=C(Nc2cccc(Cl)c2)C(=O)N1Cc1ccc(Cl)cc1Cl | 19.6 µM | > 36.1 µM | 16 µM | 24.8 µM | 25 µM | 20.9 µM | 24.8 µM | 3.45 µM | 4.83 µM | 18.9 µM | 3.85 µM | 0.0603 µM | 1 µM | 5.94 µM | 1.37 µM | 2.55 µM | 11.1 µM | 0.431 µM | 0.446 µM | 0.115 µM
7 | COC(=O)[C@@H](NC(=O)CNC(=O)[C@H]1CCCN1C(=O)C(Cc1ccccc1)NC(=S)Nc1cc(C(F)(F)F)cc(C(F)(F)F)c1)C(C)C (stereo not given in full) (X6-[ξF][dP]GV-OMe) | 14.4 µM | 53.6 µM | 3.32 µM | 5.75 µM | 10.7 µM | 6.37 µM | 8.48 µM | 13.9 µM | 3.98 µM | 24.5 µM | 3.03 µM | 3.75 µM | 1.87 µM | 2.14 µM | 2.98 µM | 1.95 µM | 2.96 µM | 2.91 µM | 1.79 µM | 3.72 µM
8 | Cn1cc(C2=C(c3cn(C)c4ncccc34)C(=O)NC2=O)c2ccccc21 | > 25 µM | > 25 µM | 13 µM | > 25 µM | > 25 µM | > 22.9 µM | > 25 µM | > 19.8 µM | > 25 µM | > 25 µM | 10.1 µM | 10.1 µM | 5.23 µM | 12.8 µM | 9.13 µM | 7.71 µM | 9.93 µM | 5.68 µM | 11.7 µM | 9.7 µM
9 | CCCCOC(=O)C1OC(O[C@H]2CCC3(C)C(CCC4(C)C3CC=C3C5CC(C)(C)CCC5(C(=O)O)CC[C@]34C)C2(C)C)C(OC2OC(CO)C(O)C(O)C2O)C(OC2OC(CO)C(O)C(O)C2O)C1O (stereo not given in full) | > 100 µM | > 100 µM | 52.3 µM | 62.2 µM | 84.4 µM | > 100 µM | > 100 µM | > 100 µM | 36.1 µM | > 100 µM | 34.1 µM | 66.8 µM | 20.1 µM | 26.2 µM | 27.7 µM | 33.2 µM | > 100 µM | 49.2 µM | 20.9 µM | 36.6 µM
10 | CCCCCN(CCCCC)CCCNc1c2c(nc3ccc(Cl)cc13)CCCC2 | 10.8 µM | 8.88 µM | 2.81 µM | 4.52 µM | 14.5 µM | 5.63 µM | 4.36 µM | 10.2 µM | 16.8 µM | 8.55 µM | 3.29 µM | 2.9 µM | 1.28 µM | 2.19 µM | 3.67 µM | 1.19 µM | 1.96 µM | 1.93 µM | 4.36 µM | 1.97 µM
11 | Clc1ccc2c(NCCCCNc3nc(N4CCCCC4)nc4ccccc34)ccnc2c1 | 10.3 µM | 10.4 µM | 3.59 µM | 3.68 µM | 7.56 µM | 3.39 µM | 4.89 µM | 3.05 µM | 3.48 µM | 4.78 µM | 3.15 µM | 2.82 µM | 1.64 µM | 2.05 µM | 1.84 µM | 1.56 µM | 1.95 µM | 1.47 µM | 1.79 µM | 1.59 µM
12 | COc1cc(-c2nn(-c3ccc(NC(=O)c4ccc(Cl)c(C(F)(F)F)c4)cc3)cc2-c2ccncc2)ccc1Cl | > 100 µM | > 100 µM | 4.37 µM | > 100 µM | > 100 µM | 8.81 µM | > 30.9 µM | 5.46 µM | 5.44 µM | > 100 µM | 4.94 µM | 5.43 µM | 2.05 µM | 6.91 µM | 4.03 µM | 2.58 µM | 2.98 µM | 1.65 µM | 2.2 µM | 3.31 µM
13 | O=C(O)c1ccccc1[Se][Se]c1ccccc1C(=O)O | > 100 µM | > 100 µM | > 100 µM | > 100 µM | > 100 µM | > 100 µM | > 100 µM | 28.3 µM | 82.8 µM | > 100 µM | – | – | – | – | – | – | – | – | – | –

Reference: PubChem BioAssay (NCI)
